The text below walks through data of US12102685B2, “Immodulator peptides covalently modified with small molecules” (priority 2020, dated 2024).

Marks after values point to notes of the source that are not given here. Peptide text beside a SMILES is read from it.

Assay [1] is described as follows: NTA-metal-affinity ELISA (Experiment x2A). It counts as binding. As for the experimental part:
The NTA-metal-affinity ELISA assay was performed using 96-well NTA-metal-coated plates readily available from commercial sources such as Qiagen (Germantown, MD). The NTA was charged with ferrous or ferric iron, zinc, copper, calcium, vanadium, ruthenium, cobalt, titanium, manganese or other metals. 400 ng of immodulator peptide IM3N1 in PBS buffer was added per plate. After incubation at room temperature for 60 minutes, excess peptide was washed off and peptide was detected by ELISA using an anti-immodulator rabbit primary antibody (A2501) and horseradish peroxidase conjugated to a secondary anti-rabbit antibody (arbitrary units)*vs EDTA control: • EDTA (no metal): 0.047±0.001 • Fe2+ (Ferrous): 0.844±0.026 (p<0.001*) • Fe3+ (Ferric): 0.848±0.011 (p<0.001*) • Zn2+ (Zinc): 0.194±0.089 (p<0.05*) • Cu2+ (Copper): 0.229±0.086 (p<0.05*)
On the technique in general: An ELISA detects its analyte on a solid surface through an enzyme-linked reagent.

Assay [2] can be described thus: NTA-metal-affinity fluorescence assay, FITC-labeled IM3 (x2B a). To be noted: FITC-labeled IM3 1 ug/well. It counts as binding. As to the method: NTA-metal-affinity fluorescence assay was performed using 96-well NTA-metal-coated plates readily available from commercial sources such as Qiagen (Germantown, MD). NTA was charged with ferrous or ferric iron, zinc, copper, calcium, vanadium, ruthenium, cobalt, titanium, manganese or other metals. 400 ng of FITC-labeled immodulator peptide (or biotinylated immodulator peptide complexed to Alexa-488-labeled streptavidin) in PBS buffer was added per plate. After incubation at room temperature for 60 minutes, excess peptide was washed off and peptide was detected by measuring fluorescence (excitation 490 nm, emmission 525 nm) in a fluorometer. • (a) Using FITC-labeled IM3 peptide (1 ug/well) in the fluorescent binding assay: • EDTA-treated control: 2,251±1,186 • Ferrous iron: 170,441±11,264 (p<0.001)* • Copper: 13,644±5566 (p<0.05)* • Calcium: 48,822±11,990 (p<0.01)* • *p values are relative to EDTA-treated control • (b) Competition binding assay to ferrous iron, calcium, copper and zinc-charged NTA-coated plates using FITC-labeled IM3 peptide (0.5 uM) and 8× (4 uM) unlabelled competitor peptides IM3N1, IM3N2 (*all comparisons to PBS control are p<0.01); # fluorescent value of binding to […] was set at 100.

In the next assay the test system is NF-kappa-B (NFkB). Description: THP1-Dual monocyte reporter, NF-kappa-B readout (x4A). It counts as cell-based. As to the method:
Immune modulation functions of immodulator peptides were measured using the monocyte reporter cell line THP1-Dual (Invivogen, San Diego, CA), which provides convenient readouts for STING and NF-kappa-B pathways. Optionally, succinic acid, cytokine and chemokine production were also measured. THP1-Dual cell line was obtained from Invivogen. Cells were grown in a T-75 flask in RPMI Medium containing 20% fetal bovine serum, blasticidin ([…]), zeocin ([…]) and penicillin-streptomycin at 37° C. in a humidified, 5% CO2 incubator. Cells ([…], 8,000 cells/well) were plated in a 96-well plate and incubated overnight at 37 °C in a humidified, 5% CO2 incubator. Next day, […] of compounds were added (quadruplicate wells). After 24 hour incubation with the compound, supernatants were harvested and stored at 4° C. prior to assay.
Each cell supernatant was assayed in quadruplicate. 20 uL of supernatant was used to measure NF-kappa-B (NFkB) and
STING activity using reagents QuantiBlu and QuantiLuc respectively, according to the manufacturer's recommendations (Invivogen, San Diego, CA). Succinic acid was measured by using a kit from Megazyme Inc (Cambridge, MA). Control value of activity was set to 100 in each assay. […] PAM3C=25 ng/ml PAM3CSK4 (TLR1/2 inducer); Poly(I:C)=10 ug/ml (TLR3 inducer); PAM2C=25 ng/ml PAM2CSK4 (TLR2/6 inducer); KIN14=4 uM KIN-1400 (RIG-I inducer); cytB=1 uM cytosporone B (Nur77 inducer); C-178=1 uM STING inhibitor; NFkBi=50 ug/ml NFkB inhibitor peptide; SB2021=10 uM p38MAPK inhibitor; *p<0.05, **p<0.01 vs IM3 control; #p<0.01 vs “no inducer” control; SUCC=succinic acid; nd=not done; Peptide was added to cells at 400 nM.
Peptides were added to cells at 400 nM. […]

Assay [3] can be described thus: IM3 / FITC-PI(4,5)P2 binding on metal-charged NTA plates (x9C). As for the experimental part: NTA-coated 96-well plates were charged with either 500 uM zinc chloride or 500 uM ferric chloride and washed. Immodulator peptide IM3 (100 ng/well) and FITC-PI(4,5)P2 (50 ng/well) were added, with or without 2 ug/well cold PPI, and incubated at room temperature for 60 minutes. The plate was washed and counted in a fluorometer.

In the case of “RGVTEDYLRLETLVQKVVSKGFYKKKQCRPSKGRKRGFCW [IM3N1]”, the “peptide bound, ELISA” value in assay [1] (Cu2+ (Copper)) stood at 0.229±0.086 arbitrary units; in assay [1] (EDTA (no metal), 400 ng peptide) it was 0.047±0.001 arbitrary units; in assay [1] (Fe2+ (Ferrous)) it was 0.844±0.026 arbitrary units; in assay [1] (Fe3+ (Ferric)) it was 0.848±0.011 arbitrary units; in assay [1] (Zn2+ (Zinc)), 0.194±0.089 arbitrary units.
Consider `N=C(N)NCCC[C@H](NC(=O)CNC(=O)[C@H](CCCCN)NC(=O)[C@H](CO)NC(=O)[C@@H]1CCCN1C(=O)[C@H](CCCNC(=N)N)NC(=O)[C@H](CS)NC(=O)[C@H](CCC(N)=O)NC(=O)[C@H](CCCCN)NC(=O)[C@H](CCCCN)NC(=O)[C@H](CCCCN)NC(=O)[C@H](Cc1ccc(O)cc1)NC(=O)[C@H](Cc1ccccc1)NC(=O)CNC(=O)[C@H](CCCCN)NC(=O)[C@@H](N)CCCCN)C(=O)N[C@@H](CCCCN)C(=O)N[C@@H](CCCNC(=N)N)C(=O)NCC(=O)N[C@@H](Cc1ccccc1)C(=O)N[C@@H](CS)C(=O)N[C@@H](Cc1c[nH]c2ccccc12)C(=O)O` [IM3] (H-KKGFYKKKQCRPSKGRKRGFCW-OH; N-terminus and C-terminus assumed), for which the fluorescence in assay [2] (Calcium) is 48,822±11,990; in assay [2] (Copper), 13,644±5566; in assay [2] (EDTA-treated control), 2,251±1,186; in assay [2] (Ferrous iron), 170,441±11,264. Also, the NFkB is 100 in the assay on NF-kappa-B (NFkB) (peptide 400 nM + KIN1400 (= 100)); 98.1 in the assay with NF-kappa-B (NFkB) (peptide 400 nM + KIN1400 + C-178 1 uM); 104.4 with NF-kappa-B (NFkB) (peptide 400 nM + KIN1400 + NFkBi 50 ug/ml); 131.3** in the assay on NF-kappa-B (NFkB) (peptide 400 nM + KIN1400 + SB2021 10 uM); 103.5 in the assay on NF-kappa-B (NFkB) (peptide 400 nM + KIN1400 + cytB 1 uM); 100 in the assay with NF-kappa-B (NFkB) (peptide 400 nM + PAM2C (= 100)). The NFkB is on record as 108.0** in the assay on NF-kappa-B (NFkB) (peptide 400 nM + PAM2C + C-178 1 uM); 118.7* in the assay with NF-kappa-B (NFkB) (peptide 400 nM + PAM2C + NFkBi 50 ug/ml); 65.4** with NF-kappa-B (NFkB) (peptide 400 nM + PAM2C + SB2021 10 uM); 99.8 in the assay on NF-kappa-B (NFkB) (peptide 400 nM + PAM2C + cytB 1 uM); 561 with NF-kappa-B (NFkB) (peptide 400 nM + PAM3C + C-178 1 uM); 458** in the assay with NF-kappa-B (NFkB) (peptide 400 nM + PAM3C + NFkBi 50 ug/ml). Besides, the NFkB in the assay on NF-kappa-B (NFkB) (peptide 400 nM + PAM3C + SB2021 10 uM) is 296**; with NF-kappa-B (NFkB) (peptide 400 nM + PAM3C + cytB 1 uM), 576; in the assay with NF-kappa-B (NFkB) (peptide 400 nM + PAM3C, control = 100) it was 575; with NF-kappa-B (NFkB) (peptide 400 nM, no inducer, control = 100), 94**. Further, the “fluorescence, FITC-PI(4,5)P2” value is recorded as 78.5 ± 5.8 in assay [3] (Ferric iron, cold PI(3)P1 2 ug/well); 100.0 ± 3.2 in assay [3] (Ferric iron, cold PI(3,5)P2 2 ug/well); 80.1 ± 1.8 in assay [3] (Ferric iron, no cold PPI); 0.0 ± 0.2 in assay [3] (No metal, no cold PPI, IM3 100 ng/well); 2.2 ± 0.3 in assay [3] (Zinc, no cold PPI).
